According to patent publication US12649748B2, “Wee1 inhibitor and use thereof” (JIANGSU TASLY DIYI PHARMACEUTICAL CO., LTD., priority 2021, dated 2026):
Read-outs that look alike come from different tables or passages of the source.

Tests used:
Wee1 protein = target: T1, Wee1 protein (Homo sapiens, UniProt P30291); experiment: Binding of compound to Wee1 protein and Tracer 178 by TR-FRET; conditions: inhibitory activity against Wee1 kinase, read-out: IC50 measured value
T1 construct: purchased Thermo Fisher PR7373A
Method: First, solutions of the compounds in different concentration gradients were prepared. […] DMSO was added as a positive control (maximal signal control) and a negative control (minimal signal control) and a final level of 0.25% DMSO was ensured in each reaction well.
WEE1 (Thermo Fisher, Cat #PR7373A) protein in buffer (50 mM Hepes pH 7.5, 10 mM MgCl2, 1 mM EGTA, 0.01% Brij-35) at 15 nM) in different concentrations of compound, and Tracer 178 (Invitrogen, PV5593) and MAb Anti-GST-Eu crypate (Cisbio, 61GSTKLA) were added to 384-well plates (Corning, cat #3574), centrifuged at 1000 rpm for 1 min and the 384-well plates were incubated in a constant temperature shaker for 60 min at 25° C. and 300 rpm. Tracer 178 and MAb Anti-GST-Eu crypate were prepared in buffer (50 mM HEPES pH 7.5, 10 mM MgCl2, 1 mM EGTA, 0.01% Brij-35) with a final reaction concentration of 50 nM for Tracer 178 and a final concentration of 2 nM for MAb Anti-GST-Eu crypate, where the negative control (minimal signal control) used an equal amount of buffer in place of the protein solution.
After incubation, readings were performed using BMG PHERAStar (excitation light at 337 nm and emission light at wavelength values of 620 nm and 665 nm to read the fluorescence signal values). […] The IC50 for inhibition of enzyme activity by the compounds was then calculated using GraphPad Prism 6 and fitted with a log (inhibitor) vs. response-Variable slope mode. The fitting equation was: Y=Bottom+(Top-Bottom)/(1+10^((Log IC50−X)*HillSlope)), where Y represents the percentage of residual enzyme activity known and X represents the known concentration of compound after the logarithm.

H1299 cells = experiment: Anti-proliferative effect by Cell Titer-Glo, H1299; assay type: cell-based; conditions: Homo sapiens, NCI-H1299, 72 h, read-out: IC50 measured value H1299
Method: (§1) Compound solutions of different concentration gradients were prepared. DMSO was dissolved to a concentration of 10 mM test compound and 10 mM reference compound AZD1775, and the compounds were serially diluted in culture medium for a total of 9 dose points, with 2 parallel replicates set at each concentration. The cell growth group without compound was used as a positive control (maximum signal control) and the medium was used as a negative control (minimum signal control), while ensuring that the final level of DMSO in each reaction well was 0.2%. After removing the medium from the 384-well plate, 25 ul of the configured compound at different concentrations was transferred into the well plate and the compound and cells were incubated in the cell incubator at 37° C. with 5% CO2 for 3 days.
(§2) The 384-well plates were removed from the cell incubator and allowed to equilibrate for 1 h to room temperature. 25 ul of Cell Titer-Glo assay was added to each well, lysed on a shaker for 2 min and then read out (Luminescence) using a BMG PHERAStar after 10 min incubation. Calculate the inhibition rate from the luminescence signal: first calculate the average of the positive control (maximum signal control) and the negative control (minimum signal control).
(§3) [formula] to calculate the rate of inhibition of the cells by different concentrations of the compounds. The IC50 of the compound on cell activity inhibition was calculated by fitting a log(inhibitor) vs. response-Variable slope model to GraphPad Prism 6. The fitted equation was: Y=Bottom+(Top−Bottom)/(1+10^((Log IC50−X)*HillSlope)), where Y represents the rate of inhibition and X represents the concentration of the known compound after Log.

MIA Paca-2 cells = experiment: Anti-proliferative effect by Cell Titer-Glo, MIA Paca-2; assay type: cell-based; conditions: Homo sapiens, read-out: IC50 measured value MIA Paca-2
Method: as §1, §2, §3

[1] = H1299 cells, 3 days, Cell Titer-Glo
[2] = 72 h, MIA Paca-2 cells, 3 days, Cell Titer-Glo

T1 sequence (P30291 whole entry): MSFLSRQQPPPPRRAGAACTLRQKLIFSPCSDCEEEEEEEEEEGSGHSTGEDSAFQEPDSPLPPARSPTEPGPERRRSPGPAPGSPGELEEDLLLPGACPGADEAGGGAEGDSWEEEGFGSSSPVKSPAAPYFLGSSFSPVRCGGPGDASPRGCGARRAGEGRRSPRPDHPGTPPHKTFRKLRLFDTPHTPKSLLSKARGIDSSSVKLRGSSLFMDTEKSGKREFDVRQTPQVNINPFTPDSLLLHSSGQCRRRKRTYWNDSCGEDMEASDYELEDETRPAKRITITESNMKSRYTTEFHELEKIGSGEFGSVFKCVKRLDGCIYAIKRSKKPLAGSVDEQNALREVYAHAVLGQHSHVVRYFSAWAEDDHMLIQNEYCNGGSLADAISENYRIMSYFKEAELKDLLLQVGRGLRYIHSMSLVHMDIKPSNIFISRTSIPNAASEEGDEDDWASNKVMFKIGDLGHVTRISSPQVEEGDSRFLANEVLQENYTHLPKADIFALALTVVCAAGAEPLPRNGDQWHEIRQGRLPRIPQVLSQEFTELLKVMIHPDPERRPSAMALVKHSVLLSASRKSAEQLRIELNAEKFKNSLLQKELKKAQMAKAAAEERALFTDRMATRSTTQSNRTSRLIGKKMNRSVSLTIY

Compound | IC50 (Wee1 protein) [nM] | IC50 (H1299 cells; [1]) [nM] | IC50 (MIA Paca-2 cells; [2]) [nM] | IC50 (H1299 cells) [nM] | IC50 (MIA Paca-2 cells; MIA PaCa-2, 72 h) [nM]
CN1CCN(c2ccc(Nc3ncc4cnn(-c5cccc(C(C)(O)C(F)(F)F)n5)c4n3)cc2)CC1 (centres unmarked) [Compound 4] | 10 to 100 | 1000 to 5000 |  |  | 
CN1CCN(c2ccc(Nc3ncc4cnn(-c5cccc(C6(S(C)(=O)=O)CC6)n5)c4n3)cc2)CC1 [Compound 5] | 10 to 100 |  |  | 1000 to 5000 | 
CS(C)(=O)=Nc1cccc(-n2ncc3cnc(Nc4ccc5c(c4)CNCC5)nc32)n1 [Compound 7] | 1 to 10 | 1000 to 5000 |  |  | 
CN1CCc2ccc(Nc3ncc4cnn(-c5cccc(N=S(C)(C)=O)n5)c4n3)cc2C1 [Compound 8] | 1 to 10 | 1000 to 5000 |  |  | 
CN(C)C1CCN(c2ccc(Nc3ncc4cnn(-c5cccc(N=S(C)(C)=O)n5)c4n3)cc2)CC1 [Compound 9] | 1 to 10 |  |  | 1000 to 5000 | 
CN1CCN(c2ccc(Nc3ncc4cnn(-c5cccc(C(C)(C)O)c5)c4n3)cc2)CC1 [Compound 12] | 10 to 100 | 100 to 1000 |  |  | 
CN1CC2CC1CN2c1ccc(Nc2ncc3cnn(-c4cccc(N=S(C)(C)=O)n4)c3n2)cc1 (centres unmarked) [Compound 13] | 1 to 10 | 5000 to 20000 |  |  | 
CS(C)(=O)=Nc1cccc(-n2ncc3cnc(Nc4ccc(CC5C(=O)C6CCN5CC6)cc4)nc32)n1 (centres unmarked) [Compound 15] | 10 to 100 | 1000 to 5000 | 100 to 1000 |  | 
CN1CCN(c2c(Cl)cc(Nc3ncc4cnn(-c5cccc(N=S(C)(C)=O)n5)c4n3)cc2Cl)CC1 [Compound 17] | 10 to 100 | 5000 to 20000 | 100 to 1000 |  | 
CN1CCN(c2ccc(Nc3ncc4cnn(-c5cccc(N=S(C)(C)=O)n5)c4n3)cc2F)CC1 [Compound 19] | 10 to 100 | 1000 to 5000 | 100 to 1000 |  | 
CN1CCN(C2CCN(c3ccc(Nc4ncc5cnn(-c6cccc(N=S(C)(C)=O)n6)c5n4)cc3)CC2)CC1 [Compound 20] | 1 to 10 | 1000 to 5000 | 100 to 1000 |  | 
Cc1cc(Nc2ncc3cnn(-c4cccc(C(C)(C)O)n4)c3n2)ccc1N1CCN(C)CC1 [Compound 21] | 10 to 100 | 1000 to 5000 | 100 to 1000 |  | 
COc1cc(N2CCN(C)CC2)ccc1Nc1ncc2cnn(-c3cccc(N=S(C)(C)=O)n3)c2n1 [Compound 22] | 100 to 1000 | 5000 to 20000 | 5000 to 20000 |  | 
CN1CCN(c2ccc(Nc3ncc4cnn(-c5cccc(N=S(C)(C)=O)n5)c4n3)cc2CO)CC1 [Compound 23] | 1 to 10 | 100 to 1000 | 100 to 1000 |  | 
CN1CCN(c2ccc(Nc3ncc4c(C(F)(F)F)nn(-c5cccc(N=S(C)(C)=O)n5)c4n3)cc2)CC1 [Compound 24] | 10 to 100 |  |  | 1000 to 5000 | 1000 to 5000
CN1CCC2(CC1)CCN(c1ccc(Nc3ncc4cnn(-c5cccc(N=S(C)(C)=O)n5)c4n3)cc1)CC2 [Compound 25] | 1 to 10 | 100 to 1000 | 100 to 1000 |  | 
CN1CCN(c2ccc(Nc3ncc4cnn(-c5cccc(N=S(C)(C)=O)c5)c4n3)cc2)CC1 [Compound 30] | 10 to 100 |  |  | 1000 to 5000 | 100 to 1000
CN1CCN(c2ccc(Nc3ncc4cnn(-c5ccc6c(c5)c(N)nn6C)c4n3)cc2)CC1 [Compound 49] | 100 to 1000 |  |  | 1000 to 5000 | 1000 to 5000

Continued, in another order:

IC50 (Wee1 protein) [nM] | IC50 (H1299 cells; [1]) [nM] | IC50 (MIA Paca-2 cells; [2]) [nM] | Compound | IC50 (H1299 cells) [nM] | IC50 (MIA Paca-2 cells; MIA PaCa-2, 72 h) [nM]
1 to 10 | 1000 to 5000 | 100 to 1000 | COc1cc(Nc2ncc3cnn(-c4cccc(N=S(C)(C)=O)n4)c3n2)ccc1N1CCN(C)CC1 [Compound 26] |  | 
1 to 10 | 100 to 1000 | 100 to 1000 | CN1CCN(c2ccc(Nc3ncc4c(=O)n(C)n(-c5cccc(N=S(C)(C)=O)n5)c4n3)cc2)CC1 [Compound 27A] |  | 
10 to 100 | 1000 to 5000 | 100 to 1000 | COc1nn(-c2cccc(N=S(C)(C)=O)n2)c2nc(Nc3ccc(N4CCN(C)CC4)cc3)ncc12 [Compound 27B] |  | 
100 to 1000 | 100 to 1000 | 100 to 1000 | CN1CCN(c2ccc(Nc3ncc4cnn(-c5ccnc(C(C)(C)O)c5)c4n3)cc2)CC1 [Compound 29] |  | 
10 to 100 | 1000 to 5000 | 100 to 1000 | CN1CCN(c2ccc(Nc3ncc4cnn(-c5cncc(N=S(C)(C)=O)c5)c4n3)cc2)CC1 [Compound 31] |  | 
100 to 1000 | 100 to 1000 | 100 to 1000 | CN1CCN(c2ccc(Nc3ncc4cnn(-c5cncc(C(C)(C)O)c5)c4n3)cc2)CC1 [Compound 32] |  | 
100 to 1000 | 1000 to 5000 | 1000 to 5000 | CN1CCN(c2ccc(Nc3ncc4cnn(-c5cccc(N=S(C)(C)=O)c5F)c4n3)cc2)CC1 [Compound 33] |  | 
100 to 1000 | 100 to 1000 | 100 to 1000 | CN1CCN(c2ccc(Nc3ncc4cnn(-c5cc(C(C)(C)O)ccn5)c4n3)cc2)CC1 [Compound 34] |  | 
100 to 1000 | 5000 to 20000 | 5000 to 20000 | CN1CCN(c2ccc(Nc3ncc4c(C(F)(F)F)nn(-c5cccc(C(C)(C)O)c5)c4n3)cc2)CC1 [Compound 35] |  | 
10 to 100 | 1000 to 5000 | 1000 to 5000 | CN1CCN(c2ccc(Nc3ncc4cnn(-c5ccc6ccncc6c5)c4n3)cc2)CC1 [Compound 36] |  | 
10 to 100 | 100 to 1000 | 100 to 1000 | CN1CCN(c2ccc(Nc3ncc4cnn(-c5ccc6scnc6c5)c4n3)cc2)CC1 [Compound 37] |  | 
10 to 100 | 100 to 1000 | 100 to 1000 | CN1CCN(c2ccc(Nc3ncc4cnn(-c5ccc6c(c5)C(=O)NCC6)c4n3)cc2)CC1 [Compound 38] |  | 
10 to 100 | 1000 to 5000 | 100 to 1000 | CN1CCN(c2ccc(Nc3ncc4cnn(-c5ccc6c(c5)C(O)CO6)c4n3)cc2)CC1 (centres unmarked) [Compound 39] |  | 
10 to 100 | 1000 to 5000 | 1000 to 5000 | CN1CCN(c2ccc(Nc3ncc4cnn(-c5ccc6cc[nH]c6c5)c4n3)cc2)CC1 [Compound 41] |  | 
10 to 100 | 100 to 1000 | 100 to 1000 | CN1CCN(c2ccc(Nc3ncc4cnn(-c5ccc(F)c(C(C)(C)O)c5)c4n3)cc2)CC1 [Compound 42] |  | 
100 to 1000 | 100 to 1000 | 100 to 1000 | CN1CCN(c2ccc(Nc3ncc4cnn(-c5cccc6c5CCC6(C)O)c4n3)cc2)CC1 (centres unmarked) [Compound 44] |  | 
10 to 100 | 1000 to 5000 | 100 to 1000 | CN1CCN(c2ccc(Nc3ncc4cnn(-c5ccc6c(c5)C(=O)NC6)c4n3)cc2)CC1 [Compound 46] |  | 
100 to 1000 | 100 to 1000 | 100 to 1000 | CN1CCN(c2ccc(Nc3ncc4cnn(-c5cccc(C(C)(C)O)c5)c4n3)cn2)CC1 [Compound 47] |  | 
10 to 100 | 1000 to 5000 | 1000 to 5000 | CN1CCN(c2ccc(Nc3ncc4cnn(-c5cccc(-n6ccccc6=O)c5)c4n3)cc2)CC1 [Compound 48] |  | 
10 to 100 | 100 to 1000 | 100 to 1000 | Cc1nc2cccc(-n3ncc4cnc(Nc5ccc(N6CCN(C)CC6)cc5)nc43)c2o1 [Compound 51] |  | 
100 to 1000 | 100 to 1000 | 100 to 1000 | CN1CCN(c2ccc(Nc3ncc4cnn(-c5cc(C(C)(C)O)ccc5F)c4n3)cc2)CC1 [Compound 52] |  | 
10 to 100 | 5000 to 20000 | 1000 to 5000 | CN1CCN(c2ccc(Nc3ncc4cnn(-c5cccc(-n6ccccc6=O)n5)c4n3)cc2)CC1 [Compound 54] |  | 
10 to 100 | 1000 to 5000 | 1000 to 5000 | CN1CCN(c2ccc(Nc3ncc4cnn(-c5ccc6ncc(C(C)(C)O)n6c5)c4n3)cc2)CC1 [Compound 55] |  | 
100 to 1000 | 5000 to 20000 | 5000 to 20000 | CN1CCN(c2ccc(Nc3ncc4cnn(-c5cccc(N=S(C)(C)=O)c5)c4n3)nc2)CC1 [Compound 56] |  | 
